Among the data in BindingDB's records for patent US8962648 (Oncotherapy Science, 2015) are IC50 values, retold here.

Structures are written as SMILES.

For the experiment, the target named is T1, Lymphokine-activated killer T-cell-originated protein kinase (Homo sapiens, UniProt Q96KB5).
T1 sequence (Q96KB5 whole entry): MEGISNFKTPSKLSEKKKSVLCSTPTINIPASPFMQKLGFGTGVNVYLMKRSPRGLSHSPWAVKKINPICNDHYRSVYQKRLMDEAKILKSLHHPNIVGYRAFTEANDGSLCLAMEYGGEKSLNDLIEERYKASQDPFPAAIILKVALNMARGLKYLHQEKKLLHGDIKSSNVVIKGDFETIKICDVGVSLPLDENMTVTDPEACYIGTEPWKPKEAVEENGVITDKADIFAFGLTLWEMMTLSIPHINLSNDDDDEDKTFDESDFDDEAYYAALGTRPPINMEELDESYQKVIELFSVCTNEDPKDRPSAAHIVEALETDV
Description: Kinase Assay. The following applies: pH 7.4; 25 °C.
What is called IC50 is the concentration that gives 50% inhibition. Low readings indicate greater potency in that assay, high ones weaker potency in that assay. The molecule `Cc1cc(O)c(-c2ccc(C3(CN)CC3)cc2)c2c1[nH]c(=O)c1sccc12` [US8962648, 1254] had an IC50 of 9.6 nM.

The molecule `COc1ccc2[nH]c(=O)c3sccc3c2c1-c1ccc(CN2CCC(CNC(=O)OC(C)(C)C)CC2)cc1` [US8962648, 139] yielded an IC50 of 9.4 nM. The result for `CN(C)S(=O)(=O)c1ccc(-c2c(O)ccc3[nH]c(=O)c4sccc4c23)cc1` [US8962648, 304] reads 45 nM; that for `CC(C)OC(=O)Oc1ccc2[nH]c(=O)c3sccc3c2c1-c1ccc(C(C)N)cc1` (stereo not drawn) [US8962648, 1077], 76 nM. The result for `NCc1ccc(-c2c(O)cc(F)c3[nH]c(=O)c4sccc4c23)cc1` [US8962648, 256] reads 2.5 nM; that for `COc1ccc2[nH]c(=O)c3sccc3c2c1-c1ccc([C@H](C)N)cc1` [US8962648, 232], 7.4 nM. Molecule `CC(C)(N)c1ccc(-c2c(O)cc(Cl)c3[nH]c(=O)c4sccc4c23)cc1` [US8962648, 334] showed an IC50 of 10 nM.

As for `NCc1ccc(-c2c(O)cc(Br)c3[nH]c(=O)c4sccc4c23)cc1` [US8962648, 270], the IC50 stood at 31 nM. Compared with the last molecule, the IC50 is about 3.1-fold higher. In the case of `COc1cc(Cl)c2[nH]c(=O)c3sccc3c2c1-c1ccc(CCN)c(F)c1` [US8962648, 1218] it was 87 nM.

Consider `CC(c1ccc(-c2c(O)c(F)c(F)c3[nH]c(=O)c4sccc4c23)cc1)N(C)C` (stereo not drawn) [US8962648, 341], for which it took 34 nM to reach half-maximal inhibition (IC50).

For `O=c1[nH]c2ccc(O)c(C3=CCNCC3)c2c2ccsc12` [US8962648, 84], the IC50 was determined as 0.78 nM. In the case of `CNCCc1ccc(-c2c(O)cc(Cl)c3[nH]c(=O)c4sccc4c23)cc1` [US8962648, 1165] it was 58 nM. `CC[C@H](N)c1ccc(-c2c(O)ccc3[nH]c(=O)c4sccc4c23)cc1` [US8962648, 1120] registered an IC50 of 0.88 nM.

`CNC[C@@H](C)c1ccc(-c2c(O)cc(C)c3[nH]c(=O)c4sccc4c23)cc1` [US8962648, 1215] came in with an IC50 of 60 nM. In the case of `NCC1(c2ccc(-c3c(O)ccc4[nH]c(=O)c5sccc5c34)cc2)CCC1` [US8962648, 1300] it was 1.7 nM. For `NCCCc1ccc(-c2c(O)ccc3[nH]c(=O)c4sccc4c23)cc1` [US8962648, 273], the IC50 was found to be 0.74 nM. Against the preceding molecule, the IC50 is about 2.3-fold lower. With `CC(C)(CN)c1ccc(-c2c(O)ccc3[nH]c(=O)c4sccc4c23)cc1F` [US8962648, 1271], the IC50 was found to be 1 nM. In the case of `CC(CN)c1ccc(-c2c(O)ccc3[nH]c(=O)c4sccc4c23)cc1F` (stereo not drawn) [US8962648, 1174] it was 1.5 nM; in that of `CS(=O)(=O)N1CCN(c2ccc(-c3c(O)ccc4[nH]c(=O)c5sccc5c34)cc2)CC1` [US8962648, 112], 12 nM. In the case of `N#CCc1ccc(-c2c(O)ccc3[nH]c(=O)c4sccc4c23)cc1F` [US8962648, 261] it was 15 nM. In the case of `CCN(CC)C(C)c1ccc(-c2c(O)ccc3[nH]c(=O)c4sccc4c23)cc1F` (stereo not drawn) [US8962648, 356] it was 3.6 nM. As to `NCc1ccc(-c2c(O)ccc3[nH]c(=O)c4sccc4c23)s1` [US8962648, 266], the IC50 is 0.78 nM. Compared with the last molecule, the IC50 is about 4.6-fold lower. In the case of `CNCc1ccc(-c2c(OC)ccc3[nH]c(=O)c4sccc4c23)cc1` [US8962648, 188] it was 7.8 nM; in that of `CN(C)C1CCCN(CCCc2c(O)ccc3[nH]c(=O)c4sccc4c23)C1` (stereo not drawn) [US8962648, 298], 83 nM; in that of `NCc1ccc(-c2c(O)cc(Cl)c3[nH]c(=O)c4sccc4c23)cc1` [US8962648, 329], 16 nM.

For `CC[C@H](c1ccc(-c2c(O)ccc3[nH]c(=O)c4sccc4c23)cc1)N(C)C` [US8962648, 1151], it took 2.5 nM to reach half-maximal inhibition (IC50). The result for `CCC(c1ccc(-c2c(O)ccc3[nH]c(=O)c4sccc4c23)cc1)N(CC)CC` (stereo not drawn) [US8962648, 338] reads 3.7 nM.

Molecule `CC(c1ccc(-c2c(O)ccc3[nH]c(=O)c4sccc4c23)cc1F)N(C)C` (stereo not drawn) [US8962648, 349] had an IC50 of 1.9 nM.
